Measurements reported in EP2666869A1 (priority 2012, dated 2013).
Values joined by “and” are separate entries in the source; they are usually repeats but may differ in a detail not shown here. Equal values may be shown once. Read-outs that look alike come from different tables or passages of the source.

How the values were obtained:
[1] = Sorafenib pharmacokinetic analysis (plasma concentrations, Bayesian estimation of AUC and Cav); type: in vivo, human; conditions: for AUC at 720 h: Cumulated sorafenib AUC, day 0 to day 30; for AUC tau at 720 h: day 30
Source text: (§1) Adverse events were reported and graded according to the National Cancer Institute Common Terminology Criteria (NCI-CTCAE) on days 15 and 30 after treatment initiation. Diarrhea and HFSR were graded according to the NCI-CTCAE 3.0 version, while hypertension was retrospectively graded according to the 4.0 version. In case of grade 4 hematological toxicity or grade 3 or 4 non-hematological toxicity, treatment was discontinued until side effects recovered to grade 1, or returned to baseline. Subsequent dose reductions were left at the discretion of the treating physician.
This Bayesian estimator is based on a 1-compartment model with saturated absorption, first-order intestinal loss and linear elimination.
For descriptive statistics, qualitative variables were expressed in numbers and percentages and quantitative ones in medians [inter-quartile intervals]. Glomerular filtration rate (GFR) and lean body mass (LBM) were estimated using the Modification of the Diet in Renal Disease (MDRD) formula and the Green's formula, respectively. […] Then, the relationships between the dose-standardized AUC and other variables were tested using two-sample Wilcoxon tests or Kruskal-Wallis tests for qualitative variables with two modalities or more than two modalities, respectively, and by Spearman rank correlation coefficient tests for quantitative ones. The following variables were tested: age, gender, ECOG status, weight, body mass index (BMI), LBM, primary tumor site, polymorphisms of CYP3A5 (rs776746), UGT1A9 (rsl78868320, rs6714486, rs72551330), ABCB1 (rs2231137, rs1045642), ABCG2 (rs2231137, rs2231142, rs2622604), alanine aminotransferase (ALT), aspartate aminotransferase (AST), alkaline phosphatase (ALP), gamma-glutamyl transpeptidase (GGT), bilirubin, albumin, C-Reactive Protein, creatinine and MDRD GFR. A stepwise multiple linear regression was then performed with variables significant with p < 0.10 in the first step included in the regression and variables significant with p < 0.05 kept in the final model. […] The cumulated AUC between day 0 and day 30 was calculated as the sum of two areas, (0-15 days) and (15-30 days) which were estimated using the trapezoidal rule. The area was multiplied by 24 to express the result in mg/L.h. […] On day 0, Cav0 was fixed at 0 mg/L.

[2] = Toxicity assessment (NCI-CTCAE grading) and risk factor analysis in the first month of sorafenib treatment; type: in vivo, human
Source text: as §1
For descriptive statistics, qualitative variables were expressed in numbers and percentages and quantitative ones in medians [inter-quartile intervals]. Glomerular filtration rate (GFR) and lean body mass (LBM) were estimated using the Modification of the Diet in Renal Disease (MDRD) formula and the Green's formula, respectively. […] Then, the relationships between the dose-standardized AUC and other variables were tested using two-sample Wilcoxon tests or Kruskal-Wallis tests for qualitative variables with two modalities or more than two modalities, respectively, and by Spearman rank correlation coefficient tests for quantitative ones. The following variables were tested: age, gender, ECOG status, weight, body mass index (BMI), LBM, primary tumor site, polymorphisms of CYP3A5 (rs776746), UGT1A9 (rsl78868320, rs6714486, rs72551330), ABCB1 (rs2231137, rs1045642), ABCG2 (rs2231137, rs2231142, rs2622604), alanine aminotransferase (ALT), aspartate aminotransferase (AST), alkaline phosphatase (ALP), gamma-glutamyl transpeptidase (GGT), bilirubin, albumin, C-Reactive Protein, creatinine and MDRD GFR. A stepwise multiple linear regression was then performed with variables significant with p < 0.10 in the first step included in the regression and variables significant with p < 0.05 kept in the final model. For the analysis of sorafenib-induced toxicities in the first month of treatment, we used dichotomous end points expressed as any toxicity ≥ grade 3 (yes or no), or grade ≥ 2 HFSR (yes or no), or grade ≥ 2 diarrhea (yes or no), or grade ≥ 2 hypertension (yes or no). The cumulated AUC between day 0 and day 30 was calculated as the sum of two areas, (0-15 days) and (15-30 days) which were estimated using the trapezoidal rule. The area was multiplied by 24 to express the result in mg/L.h. […] On day 0, Cav0 was fixed at 0 mg/L.
The univariate analysis of toxicity risk factors was carried out using two sample Wilcoxon tests for quantitative variables and Chi square or Fisher exact tests for qualitative ones. Fisher exact tests were performed as soon as at least one expected value was lower than 5. […] The multivariate analysis was performed by a stepwise logistic regression. Variables with p-values < 0.10 in the univariate analysis were included in the regression and variables with a Wald test p-value < 0.05 were kept in the final model. All the tests were two-sided, and they were considered significant when p-values were < 0.05. The receiver operating characteristic (ROC) curve was constructed to examine the value of an AUCcum threshold predicting a toxicity of grade ≥ 3 in the first month of treatment. The diagnostic accuracy values of sensitivity and specificity were determined, as well as the positive predictive value (PPV) and the negative predictive value (NPV). Computations were performed using the SAS V9 statistical package (SAS institute, Cary, NC).

[3] = AUCcum threshold value of 3,161 mg/L.h, toxicity of grade ≥ 3

CNC(=O)c1cc(Oc2ccc(NC(=O)Nc3ccc(Cl)c(C(F)(F)F)c3)cc2)ccn1 [sorafenib]
Spearman's coefficient (rho) ([1]; dose-normalized AUC day 15 versus Creatinine (µmol/L)): -0.26
Spearman's coefficient (rho) ([1]; dose-normalized AUC day 15 versus LBM (kg)): -0.28
AUC at 720 h ([1]; human, plasma, patients with Hand Foot Skin Reaction ≥ grade 2, median [interquartile range]): 3310 µg·h/mL
AUC at 720 h ([1]; human, plasma, patients with any toxicity ≥ grade 3, median [interquartile range]): 3500 µg·h/mL
AUC at 720 h ([1]; human, plasma, patients without Hand Foot Skin Reaction ≥ grade 2, median [interquartile range]): 2250 µg·h/mL
AUC at 720 h ([1]; human, plasma, patients without any toxicity ≥ grade 3, median [interquartile range]): 2250 µg·h/mL
AUC tau at 360 h ([1]; human, plasma, day 15, females, read-out: median absolute AUC): 78.3 µg·h/mL
AUC tau at 360 h ([1]; human, plasma, day 15, males, read-out: median absolute AUC): 52.4 µg·h/mL
AUC tau at 720 h ([1]; human, plasma, females, read-out: median absolute AUC): 82.2 µg·h/mL
AUC tau at 720 h ([1]; human, plasma, males, read-out: median absolute AUC): 55.2 µg·h/mL
AUC tau at 12 h ([1]; human, plasma, median absolute sorafenib AUC, day 15, all patients, AUC 0 to 12 hours, median [interquartile range]): 62 µg·h/mL
AUC tau at 720 h ([1]; human, plasma, median absolute sorafenib AUC, all patients, median [interquartile range]): 61 µg·h/mL
NPV [2, 3]: 63.3%
PPV [2, 3]: 75.8%
area under the ROC curve for the AUCcum threshold ([2]; CI 95%, 61-78%): 69%
Any toxicity ≥ grade 3: No ([2]; CYP3A5 6986 A>G AA (*1/*1)): 0 (0) n (%)
Any toxicity ≥ grade 3: Yes ([2]; CYP3A5 6986 A>G AA (*1/*1)): 4 (100) n (%)
Any toxicity ≥ grade 3: No ([2]; CYP3A5 6986 A>G AG (*1/*3)): 6 (67) n (%)
Any toxicity ≥ grade 3: Yes ([2]; CYP3A5 6986 A>G AG (*1/*3)): 3 (33) n (%)
Any toxicity ≥ grade 3: No ([2]; CYP3A5 6986 A>G GG (*3/*3)): 24 (63) n (%)
Any toxicity ≥ grade 3: Yes ([2]; CYP3A5 6986 A>G GG (*3/*3)): 14 (37) n (%)
Any toxicity ≥ grade 3: No ([2]; Female): 5 (33.3) n (%)
Any toxicity ≥ grade 3: Yes ([2]; Female): 10 (66.7) n (%)
Hand Foot Skin Reaction ≥ grade 2: No ([2]; Female): 5 (33.3) n (%)
Hand Foot Skin Reaction ≥ grade 2: Yes ([2]; Female): 10 (66.7) n (%)
Any toxicity ≥ grade 3: No ([2]; Male): 25 (67.6) n (%)
Any toxicity ≥ grade 3: Yes ([2]; Male): 12 (32.4) n (%)
Hand Foot Skin Reaction ≥ grade 2: No ([2]; Male): 25 (52.0) n (%)
Hand Foot Skin Reaction ≥ grade 2: Yes ([2]; Male): 12 (48.0) n (%)
Occurrence during first month of treatment: Diarrhea ([2]; No): 37 (69) n (%)
Occurrence during first month of treatment: Hypertension ([2]; No): 28 (52) n (%)
Occurrence during first month of treatment: Hand-foot skin reaction ([2]; No, 54 patients): 17 (31) n (%)
AUCcum threshold predicting a toxicity of grade ≥ 3 ([2]; ROC curve, first month of treatment): 3,161 mg/L.h
Diarrhea ≥ grade 2: No ([2]; UGT1A9 -275 T>A m/m): 0 (0) n (%)
Diarrhea ≥ grade 2: Yes ([2]; UGT1A9 -275 T>A m/m): 0 (0) n (%)
Diarrhea ≥ grade 2: No ([2]; UGT1A9 -275 T>A wt/m): 2 (50) n (%)
Diarrhea ≥ grade 2: Yes ([2]; UGT1A9 -275 T>A wt/m): 2 (50) n (%)
Diarrhea ≥ grade 2: No ([2]; UGT1A9 -275 T>A wt/wt): 43 (93) n (%)
Diarrhea ≥ grade 2: Yes ([2]; UGT1A9 -275 T>A wt/wt): 3 (7) n (%)
Diarrhea ≥ grade 2: No ([2]; UGT1A9 -2152 C>T m/m): 0 (0) n (%)
Diarrhea ≥ grade 2: Yes ([2]; UGT1A9 -2152 C>T m/m): 0 (0) n (%)
Diarrhea ≥ grade 2: No ([2]; UGT1A9 -2152 C>T wt/m): 2 (50) n (%)
Diarrhea ≥ grade 2: Yes ([2]; UGT1A9 -2152 C>T wt/m): 2 (50) n (%)
Diarrhea ≥ grade 2: No ([2]; UGT1A9 -2152 C>T wt/wt): 42 (93) n (%)
Diarrhea ≥ grade 2: Yes ([2]; UGT1A9 -2152 C>T wt/wt): 3 (7) n (%)
Occurrence during first month of treatment: Diarrhea ([2]; Yes): 17 (31) n (%)
Occurrence during first month of treatment: Hypertension ([2]; Yes): 25 (46) n (%)
Occurrence during first month of treatment: Hand-foot skin reaction ([2]; Yes, 54 patients): 37 (69) n (%)
Occurrence during first month of treatment: Diarrhea ([2]; grade < 2): 12 n (%)
Occurrence during first month of treatment: Hand-foot skin reaction ([2]; grade < 2): 15 n (%)
Occurrence during first month of treatment: Hypertension ([2]; grade < 2): 5 n (%)
Occurrence during first month of treatment: Diarrhea ([2]; grade ≥ 2 (grade 2-3)): 5 (9%) n (%) and 5 n (%)
Occurrence during first month of treatment: Hand-foot skin reaction ([2]; grade ≥ 2 (grade 2-3)): 22 (41%) n (%) and 22 n (%)
Occurrence during first month of treatment: Hypertension ([2]; grade ≥ 2 (grade 2-3)): 20 (38%) n (%) and 20 n (%)
grade 3 or 4 toxicity: diarrhea ([2]; on days 15 or 30, 5% of the 22 patients with grade 3 or 4 toxicity): 1 n
grade 3 or 4 toxicity: hypertension ([2]; on days 15 or 30, 27% of the 22 patients with grade 3 or 4 toxicity): 6 n
grade 3 or 4 toxicity: HFSR ([2]; on days 15 or 30, 68% of the 22 patients with grade 3 or 4 toxicity): 15 n
patients who experienced grade 3 or 4 toxicity ([2]; on days 15 or 30, twenty-two of 54 patients): 41%
patients who required dose reductions because of toxic effects ([2]; over the study period): 9 n
patients who required interruption of treatment because of toxic effects ([2]; over the study period): 10 n
patients who required dose reductions or interruption of treatment because of toxic effects ([2]; over the study period, nineteen patients): 35%
toxic death in relation with sorafenib ([2]; study period): no toxic death
